According to ChEMBL document CHEMBL1201862, “PubChem BioAssay data set” (2004):
Activity calls are given as the source filed them.

Legend:
[1] = target: Ion channel NompC (Danio rerio, UniProt Q7T1G6); test: Fluorescence counterscreen assay for TRPML3 agonists: dose response cell-based high-throughput screening assay to identify agonists of the transient receptor potential channel N1 (TRPN1). [Related pubchem assays: 1526, 1424, 1448 ]; type: functional
[2] = tested on: Streptococcus sp. 'group A'; test: Streptococcus pyogenes SK(-)GAS viability under kanamycin – luminescence, BacTiterGlo, confirmation, counter-screen for streptokinase expression inhibitor project, dose response (AID 1900); type: functional, organism-based
[3] = target: T1, Mucolipin-3 (Homo sapiens, UniProt Q8TDD5); test: Dose response cell-based high-throughput screening assay for agonists of the transient receptor potential channel ML3 (TRPML3). [Related pubchem assays: 1526, 1424, 1448 ]; type: functional
T1 sequence (Q8TDD5 whole entry): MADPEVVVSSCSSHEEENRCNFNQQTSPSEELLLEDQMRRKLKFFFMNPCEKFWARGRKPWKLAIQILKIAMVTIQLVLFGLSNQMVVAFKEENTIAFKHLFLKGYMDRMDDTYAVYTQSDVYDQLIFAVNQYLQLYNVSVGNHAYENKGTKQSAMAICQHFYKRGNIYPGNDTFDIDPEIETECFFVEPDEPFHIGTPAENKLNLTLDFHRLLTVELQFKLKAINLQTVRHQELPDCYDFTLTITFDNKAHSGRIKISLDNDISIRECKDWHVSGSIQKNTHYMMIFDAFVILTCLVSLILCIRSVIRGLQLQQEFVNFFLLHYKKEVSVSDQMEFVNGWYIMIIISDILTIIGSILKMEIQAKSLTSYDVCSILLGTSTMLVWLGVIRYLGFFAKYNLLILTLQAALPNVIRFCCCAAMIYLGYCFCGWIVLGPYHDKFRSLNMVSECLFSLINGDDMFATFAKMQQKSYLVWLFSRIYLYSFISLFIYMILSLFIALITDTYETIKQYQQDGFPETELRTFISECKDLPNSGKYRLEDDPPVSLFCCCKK

[4] = tested on: Streptococcus; test: GAS UMAA2166 growth inhibition – luminescence, BacTiterGlo, counter-screen for streptokinase expression inhibitor project, dose response (AID 1915); type: functional, organism-based;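 note: potency for reduction of bacterial viability or growth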
[5] = target: T2, Streptokinase A (Streptococcus pyogenes serotype M1, UniProt P10520); test: viability-normalized secreted streptokinase activity reduction – plasminogen activation absorbance, OD405, dose response (AID 1914); type: functional, Streptococcus pyogenes M1 GAS;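 note: secreted streptokinase activity via plasminogen activation per viability signal from cell pellet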
T2 sequence (P10520 whole entry): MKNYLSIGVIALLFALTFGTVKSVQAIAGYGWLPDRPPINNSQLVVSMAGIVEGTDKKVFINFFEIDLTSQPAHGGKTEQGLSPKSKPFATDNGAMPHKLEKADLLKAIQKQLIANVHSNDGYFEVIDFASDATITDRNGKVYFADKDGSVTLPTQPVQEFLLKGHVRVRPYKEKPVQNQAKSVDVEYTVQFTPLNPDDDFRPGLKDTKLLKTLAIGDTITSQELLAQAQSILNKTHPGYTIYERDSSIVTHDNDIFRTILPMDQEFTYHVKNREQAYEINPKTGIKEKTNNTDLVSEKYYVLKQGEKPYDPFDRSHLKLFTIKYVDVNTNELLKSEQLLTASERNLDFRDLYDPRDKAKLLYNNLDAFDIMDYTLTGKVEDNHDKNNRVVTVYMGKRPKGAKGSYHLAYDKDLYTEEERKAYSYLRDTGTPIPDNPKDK

[6] = target: T3, SUMO-activating enzyme (Homo sapiens, UniProt Q9UBT2); test: blockers of SAE1/SAE2–UBC9 SUMO transfer – biochemical, HTRF, uHTS, primary screen (AID 2006); type: protein-complex assay
[7] = target: T4, Calpain-2 catalytic subunit (Sus scrofa, UniProt P43367); test: m-calpain protease blockers, concentration series – biochemical, fluorogenic peptide substrate, dose response (AID 1420); type: functional
T4 sequence (P43367 whole entry): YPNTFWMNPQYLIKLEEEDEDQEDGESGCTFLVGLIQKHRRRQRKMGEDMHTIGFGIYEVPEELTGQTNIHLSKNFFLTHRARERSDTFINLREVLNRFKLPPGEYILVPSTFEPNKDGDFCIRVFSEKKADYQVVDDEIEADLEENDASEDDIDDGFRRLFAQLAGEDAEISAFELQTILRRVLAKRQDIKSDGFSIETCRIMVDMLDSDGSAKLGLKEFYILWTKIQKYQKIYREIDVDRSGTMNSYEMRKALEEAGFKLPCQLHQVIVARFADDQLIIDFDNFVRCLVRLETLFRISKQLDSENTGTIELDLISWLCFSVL

[8] = target: Dual specificity tyrosine-phosphorylation-regulated kinase 1A (Rattus norvegicus, UniProt Q63470); type: biochemical, Homo sapiens
[9] = target: T3, SUMO-activating enzyme; test: blockers of UBC9-mediated SUMO conjugation – biochemical, AlphaScreen, SUMOylation inhibitor project, confirmation (AID 2018); type: functional
[10] = target: Intestinal-type alkaline phosphatase (Homo sapiens, UniProt P09923); test: Dose Response confirmation of uHTS hits from a small molecule inhibitors of human intestinal alkaline phosphatase via a luminescent assay. [Related pubchem assays (depositor defined):AID2544, AID2574]; type: functional
[11] = target: T5, Heat shock 70 kDa protein 1A (Homo sapiens, UniProt P0DMV8); test: small molecules displacing fluorescent ligand from Hsp70 – biochemical, fluorescence polarization, primary screen (AID 583)
[12] = target: T5, Heat shock 70 kDa protein 1A; test: small-molecule inhibition of Hsp70 – biochemical, TR-FRET (AID 786)
[13] = fluconazole-exposed Candida albicans growth modulators – fluorescence, retest, confirmation (AID 2467); type: functional, cell-based
[14] = target: T6, Serine/threonine-protein phosphatase (Candida dubliniensis (strain CD36 / CBS 7987 / NCPF 3949 / NRRLY-17841) (Yeast), UniProt B9W6M3); test: blockers of CaCl2-induced CDRE-lacZ signaling – S. cerevisiae, luminescence, secondary, dose response (AID 2388); type: functional, cell-based;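 note: yeast reporter cells carrying a calcineurin-responsive lacZ construct stimulated with calcium chloride; luminescent beta-galactosidase reporter signal in whole cells rather than isolated phosphatase activity; potency for inhibition where a drop in reporter signal means calcineurin blockade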
T6 sequence (B9W6M3 whole entry): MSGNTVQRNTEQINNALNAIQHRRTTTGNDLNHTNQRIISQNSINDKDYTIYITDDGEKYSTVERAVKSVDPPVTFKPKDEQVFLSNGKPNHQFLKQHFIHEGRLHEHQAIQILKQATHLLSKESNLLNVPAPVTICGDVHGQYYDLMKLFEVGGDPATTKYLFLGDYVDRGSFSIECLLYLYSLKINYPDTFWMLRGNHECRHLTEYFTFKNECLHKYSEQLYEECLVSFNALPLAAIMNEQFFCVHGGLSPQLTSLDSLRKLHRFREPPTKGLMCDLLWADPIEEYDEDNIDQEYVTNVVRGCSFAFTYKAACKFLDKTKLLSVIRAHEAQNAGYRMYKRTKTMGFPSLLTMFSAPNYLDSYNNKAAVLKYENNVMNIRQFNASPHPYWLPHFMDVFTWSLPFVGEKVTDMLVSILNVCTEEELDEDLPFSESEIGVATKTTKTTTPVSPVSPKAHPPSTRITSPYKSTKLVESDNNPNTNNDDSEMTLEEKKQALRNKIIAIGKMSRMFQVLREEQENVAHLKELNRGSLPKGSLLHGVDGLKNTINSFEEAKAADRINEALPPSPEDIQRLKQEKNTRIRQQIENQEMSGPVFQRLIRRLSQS

[15] = target: Peroxisome proliferator-activated receptor gamma/Nuclear receptor coactivator 1 (Homo sapiens, UniProt P37231); test: TR-FRET dose response biochemical High Throughput Screening assay for agonists of the steroid receptor coactivator 1 (SRC-1) recruitment by the peroxisome proliferator-activated receptor gamma (PPAR gamma): non-selective agonists. [Related pubchem assays (depositor defined):AID1300, AID1808, AID504735, AID631]; type: protein assay
[16] = target: NS3 (Hepatitis C virus, UniProt A3EZJ3); test: PubChem AID 2173; parameters: species or system Hepacivirus hominis
[17] = target: T7, Long-chain-fatty-acid--AMP ligase FadD28 (Mycobacterium tuberculosis, UniProt P9WQ59); test: Fluorescence polarization aasay to screen for inhibitors that compete for the binding of FadD28 to a bisubstrate Measured in Biochemical System Using Plate Reader - 2147-01_Inhibitor_Dose_CherryPick_Activity.; type: functional, Mycobacterium tuberculosis H37Rv
T7 sequence (P9WQ59 whole entry): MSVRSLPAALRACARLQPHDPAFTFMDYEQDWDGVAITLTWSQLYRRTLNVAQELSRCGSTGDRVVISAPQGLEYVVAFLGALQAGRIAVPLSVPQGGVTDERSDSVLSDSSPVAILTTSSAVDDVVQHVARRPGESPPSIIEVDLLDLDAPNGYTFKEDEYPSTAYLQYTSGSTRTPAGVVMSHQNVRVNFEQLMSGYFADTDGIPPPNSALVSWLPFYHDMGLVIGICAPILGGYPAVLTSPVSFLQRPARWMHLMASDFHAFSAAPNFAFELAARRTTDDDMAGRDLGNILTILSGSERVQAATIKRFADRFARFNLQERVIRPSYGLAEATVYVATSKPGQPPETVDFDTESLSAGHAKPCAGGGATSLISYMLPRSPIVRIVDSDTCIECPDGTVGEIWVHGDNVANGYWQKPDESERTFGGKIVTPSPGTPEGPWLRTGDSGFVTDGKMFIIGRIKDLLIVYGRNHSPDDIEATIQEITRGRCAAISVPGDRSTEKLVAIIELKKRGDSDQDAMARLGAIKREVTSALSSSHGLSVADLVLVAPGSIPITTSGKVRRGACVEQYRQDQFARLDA

[18] = target: Peroxisome proliferator-activated receptor gamma/Nuclear receptor coactivator 2 (Homo sapiens, UniProt P37231); test: (§1) TR-FRET dose response biochemical High Throughput Screening assay for agonists of the steroid receptor coactivator 2 (SRC-2) recruitment by the peroxisome proliferator-activated receptor gamma (PPAR gamma): non-selective agonists. [Related pubchem assays: 1297, 1032 ]; type: functional
[19] = NIH-3T3 fibroblast cytotoxicity, dose response, cytotoxicity control, cell-based, fluorescence, Alamar Blue, secondary assay (AID 2327); type: functional;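 note: NIH-3T3 mouse fibroblasts cultured with fluconazole at 8 µg/mL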
[20] = target: ATP-dependent molecular chaperone HSP82 (Candida albicans (strain WO-1) (Yeast), UniProt C4YTQ8); test: steroid-induced GRE reporter decrease in yeast – S. cerevisiae, luminescence, Hsp90 inhibitor project, dose response (AID 2400); type: functional, cell-based;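 note: beta-galactosidase luminescence from glucocorticoid response element reporter as proxy for Hsp90 function; inhibitor potency where signal loss means Hsp90 inhibition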
[21] = target: Peroxisome proliferator-activated receptor gamma/Nuclear receptor coactivator 3 (Homo sapiens, UniProt P37231); test: as §1, with “3 (SRC-3)” for “2 (SRC-2)”, “1301 (Confirmation screen.), 1048 (Primary screen.)]” for “1297, 1032 ]”; type: functional
[22] = target: T8, fMet-Leu-Phe receptor (Homo sapiens, UniProt P21462); test: formyl peptide receptor binders – dose response (AID 519); type: functional
T8 sequence (P21462 whole entry): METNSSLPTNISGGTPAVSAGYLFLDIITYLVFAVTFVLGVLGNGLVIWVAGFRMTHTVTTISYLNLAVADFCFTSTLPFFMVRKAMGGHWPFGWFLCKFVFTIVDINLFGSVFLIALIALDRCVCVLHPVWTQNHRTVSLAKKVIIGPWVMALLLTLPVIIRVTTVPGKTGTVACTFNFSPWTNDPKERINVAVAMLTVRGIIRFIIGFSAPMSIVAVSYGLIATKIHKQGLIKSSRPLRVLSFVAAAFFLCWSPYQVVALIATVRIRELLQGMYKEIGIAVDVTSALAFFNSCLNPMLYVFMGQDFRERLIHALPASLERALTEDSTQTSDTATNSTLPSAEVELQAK

T5 sequence (P0DMV8 whole entry): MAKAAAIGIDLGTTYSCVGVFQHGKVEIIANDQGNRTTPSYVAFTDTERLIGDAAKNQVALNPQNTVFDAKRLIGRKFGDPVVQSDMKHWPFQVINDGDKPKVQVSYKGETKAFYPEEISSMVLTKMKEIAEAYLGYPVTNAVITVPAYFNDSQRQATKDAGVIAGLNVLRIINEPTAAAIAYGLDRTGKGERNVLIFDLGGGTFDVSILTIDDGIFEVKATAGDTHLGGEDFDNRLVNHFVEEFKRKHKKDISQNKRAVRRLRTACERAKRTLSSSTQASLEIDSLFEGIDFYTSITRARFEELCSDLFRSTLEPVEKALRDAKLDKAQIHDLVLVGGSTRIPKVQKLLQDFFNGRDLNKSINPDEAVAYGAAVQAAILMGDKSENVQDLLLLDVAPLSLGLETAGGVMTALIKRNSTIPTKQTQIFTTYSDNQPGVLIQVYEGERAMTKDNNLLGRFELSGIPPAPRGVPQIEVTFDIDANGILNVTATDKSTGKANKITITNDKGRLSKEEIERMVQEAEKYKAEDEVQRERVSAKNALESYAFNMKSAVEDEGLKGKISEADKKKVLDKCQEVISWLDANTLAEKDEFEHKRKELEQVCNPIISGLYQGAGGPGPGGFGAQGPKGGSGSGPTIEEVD
T3 sequence (Q9UBE0 whole entry): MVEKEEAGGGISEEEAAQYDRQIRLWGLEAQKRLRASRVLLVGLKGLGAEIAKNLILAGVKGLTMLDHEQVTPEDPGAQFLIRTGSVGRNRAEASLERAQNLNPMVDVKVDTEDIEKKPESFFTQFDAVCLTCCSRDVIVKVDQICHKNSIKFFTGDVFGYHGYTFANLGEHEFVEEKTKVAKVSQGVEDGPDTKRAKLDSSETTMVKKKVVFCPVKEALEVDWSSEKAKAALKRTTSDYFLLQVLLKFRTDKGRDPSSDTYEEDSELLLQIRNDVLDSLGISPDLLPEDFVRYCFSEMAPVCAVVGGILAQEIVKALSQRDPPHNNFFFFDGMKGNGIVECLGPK
T3 sequence (Q9UBT2 whole entry): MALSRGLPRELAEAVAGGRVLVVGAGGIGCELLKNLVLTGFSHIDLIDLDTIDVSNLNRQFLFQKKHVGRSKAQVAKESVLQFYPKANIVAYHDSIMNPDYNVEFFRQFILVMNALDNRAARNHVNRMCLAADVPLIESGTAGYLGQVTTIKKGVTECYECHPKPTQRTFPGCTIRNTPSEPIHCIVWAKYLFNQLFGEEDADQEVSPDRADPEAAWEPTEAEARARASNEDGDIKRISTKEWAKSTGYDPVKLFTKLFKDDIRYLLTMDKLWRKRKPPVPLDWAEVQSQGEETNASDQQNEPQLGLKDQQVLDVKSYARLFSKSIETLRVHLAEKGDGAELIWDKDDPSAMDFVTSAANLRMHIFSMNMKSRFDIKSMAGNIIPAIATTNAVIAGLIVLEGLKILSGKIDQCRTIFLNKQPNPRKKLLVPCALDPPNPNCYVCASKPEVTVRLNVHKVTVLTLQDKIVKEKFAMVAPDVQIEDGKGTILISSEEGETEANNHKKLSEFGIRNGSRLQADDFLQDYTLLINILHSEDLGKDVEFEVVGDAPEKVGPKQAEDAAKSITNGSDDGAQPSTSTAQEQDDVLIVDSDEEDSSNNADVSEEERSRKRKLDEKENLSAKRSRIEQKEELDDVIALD
Peroxisome proliferator-activated receptor gamma/Nuclear receptor coactivator 1, sequence (P37231 whole entry): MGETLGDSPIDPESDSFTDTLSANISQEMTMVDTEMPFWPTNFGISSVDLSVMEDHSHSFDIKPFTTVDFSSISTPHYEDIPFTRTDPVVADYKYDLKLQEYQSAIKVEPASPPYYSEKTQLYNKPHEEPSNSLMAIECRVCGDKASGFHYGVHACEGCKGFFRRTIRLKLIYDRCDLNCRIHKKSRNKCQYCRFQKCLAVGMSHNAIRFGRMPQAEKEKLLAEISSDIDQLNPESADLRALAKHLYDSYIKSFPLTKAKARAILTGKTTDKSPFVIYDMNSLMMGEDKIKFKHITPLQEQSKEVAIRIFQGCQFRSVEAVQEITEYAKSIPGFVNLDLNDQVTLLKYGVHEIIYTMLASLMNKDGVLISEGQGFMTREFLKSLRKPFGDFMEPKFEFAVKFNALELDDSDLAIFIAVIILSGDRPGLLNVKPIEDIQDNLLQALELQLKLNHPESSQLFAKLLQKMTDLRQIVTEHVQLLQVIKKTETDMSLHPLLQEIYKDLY
Peroxisome proliferator-activated receptor gamma/Nuclear receptor coactivator 1, sequence (Q15788 whole entry, further chain): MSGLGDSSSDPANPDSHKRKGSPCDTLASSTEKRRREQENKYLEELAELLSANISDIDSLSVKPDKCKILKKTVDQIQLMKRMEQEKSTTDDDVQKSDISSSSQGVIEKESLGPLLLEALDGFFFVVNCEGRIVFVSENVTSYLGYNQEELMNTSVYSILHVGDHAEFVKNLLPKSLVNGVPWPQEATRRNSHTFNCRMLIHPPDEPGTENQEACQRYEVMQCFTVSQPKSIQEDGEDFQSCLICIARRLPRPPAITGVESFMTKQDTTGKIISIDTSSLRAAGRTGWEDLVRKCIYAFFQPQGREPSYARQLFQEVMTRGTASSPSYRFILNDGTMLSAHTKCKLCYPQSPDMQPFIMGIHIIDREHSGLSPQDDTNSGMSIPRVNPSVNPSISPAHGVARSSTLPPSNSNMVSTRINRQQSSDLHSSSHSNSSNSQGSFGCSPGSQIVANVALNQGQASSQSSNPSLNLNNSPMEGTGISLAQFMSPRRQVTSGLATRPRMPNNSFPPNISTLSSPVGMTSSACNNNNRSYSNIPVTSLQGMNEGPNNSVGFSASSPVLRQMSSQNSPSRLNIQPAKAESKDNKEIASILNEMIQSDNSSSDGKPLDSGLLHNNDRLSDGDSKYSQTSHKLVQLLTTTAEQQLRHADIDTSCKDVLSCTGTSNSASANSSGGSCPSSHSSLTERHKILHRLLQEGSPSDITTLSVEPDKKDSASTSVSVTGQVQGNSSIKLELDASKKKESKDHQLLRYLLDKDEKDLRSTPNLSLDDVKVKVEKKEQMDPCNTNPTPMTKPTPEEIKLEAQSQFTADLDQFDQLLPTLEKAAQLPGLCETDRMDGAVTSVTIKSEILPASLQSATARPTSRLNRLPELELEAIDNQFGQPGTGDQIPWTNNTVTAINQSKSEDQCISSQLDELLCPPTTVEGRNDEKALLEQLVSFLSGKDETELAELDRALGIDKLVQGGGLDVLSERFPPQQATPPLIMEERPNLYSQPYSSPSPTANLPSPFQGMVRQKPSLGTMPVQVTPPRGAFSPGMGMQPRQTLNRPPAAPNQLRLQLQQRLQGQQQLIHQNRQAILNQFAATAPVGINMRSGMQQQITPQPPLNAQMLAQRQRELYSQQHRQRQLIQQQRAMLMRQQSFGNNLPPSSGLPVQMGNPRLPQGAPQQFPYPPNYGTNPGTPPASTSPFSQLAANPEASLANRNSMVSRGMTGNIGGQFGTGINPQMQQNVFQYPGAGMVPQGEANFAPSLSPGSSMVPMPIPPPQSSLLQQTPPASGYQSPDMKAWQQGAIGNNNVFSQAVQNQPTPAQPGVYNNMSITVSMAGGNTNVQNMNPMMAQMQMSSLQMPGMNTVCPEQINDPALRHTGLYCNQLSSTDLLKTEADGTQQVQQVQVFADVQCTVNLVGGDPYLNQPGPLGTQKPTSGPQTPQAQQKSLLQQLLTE
Intestinal-type alkaline phosphatase, sequence (P09923 whole entry): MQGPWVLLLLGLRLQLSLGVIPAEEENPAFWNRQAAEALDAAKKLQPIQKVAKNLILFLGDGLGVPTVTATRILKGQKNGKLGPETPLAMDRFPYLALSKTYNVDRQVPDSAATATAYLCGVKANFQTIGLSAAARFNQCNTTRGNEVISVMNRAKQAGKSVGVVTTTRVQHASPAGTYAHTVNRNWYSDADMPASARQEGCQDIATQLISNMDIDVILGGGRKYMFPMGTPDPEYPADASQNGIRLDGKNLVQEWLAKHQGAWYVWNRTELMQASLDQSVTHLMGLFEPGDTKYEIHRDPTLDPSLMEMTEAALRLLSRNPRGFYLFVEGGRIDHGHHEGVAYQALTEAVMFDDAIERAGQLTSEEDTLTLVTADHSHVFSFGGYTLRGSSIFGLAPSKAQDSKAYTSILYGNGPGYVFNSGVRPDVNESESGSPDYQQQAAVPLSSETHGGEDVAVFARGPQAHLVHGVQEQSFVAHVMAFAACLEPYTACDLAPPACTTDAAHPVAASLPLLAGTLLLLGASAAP
ATP-dependent molecular chaperone HSP82, sequence (C4YTQ8 whole entry): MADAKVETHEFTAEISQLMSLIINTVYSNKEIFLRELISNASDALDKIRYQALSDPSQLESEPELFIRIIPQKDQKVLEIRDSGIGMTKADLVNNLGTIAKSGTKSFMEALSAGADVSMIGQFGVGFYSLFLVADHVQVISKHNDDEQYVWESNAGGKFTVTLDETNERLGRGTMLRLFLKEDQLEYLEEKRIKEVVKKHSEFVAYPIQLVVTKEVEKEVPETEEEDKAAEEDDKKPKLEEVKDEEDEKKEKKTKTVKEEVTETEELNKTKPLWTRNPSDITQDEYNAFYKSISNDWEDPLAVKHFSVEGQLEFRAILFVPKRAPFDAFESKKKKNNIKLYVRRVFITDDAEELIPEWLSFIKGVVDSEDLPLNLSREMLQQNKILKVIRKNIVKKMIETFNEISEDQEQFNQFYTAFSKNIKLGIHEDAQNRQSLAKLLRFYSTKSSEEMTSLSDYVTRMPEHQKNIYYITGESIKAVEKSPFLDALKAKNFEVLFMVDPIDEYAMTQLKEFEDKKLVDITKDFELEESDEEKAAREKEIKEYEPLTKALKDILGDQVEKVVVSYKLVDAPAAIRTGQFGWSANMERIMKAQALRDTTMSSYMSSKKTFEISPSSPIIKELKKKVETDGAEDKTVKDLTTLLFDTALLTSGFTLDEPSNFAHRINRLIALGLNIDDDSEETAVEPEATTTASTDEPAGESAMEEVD

SMILES: Cc1cc(C)n(-c2nc(C)nc(NCc3ccccc3)n2)n1
- EC50 [1]: > 29.9 µM (not active)
- EC50 [2]: 42.4 µM (active)
- EC50 [3]: > 29.9 µM (not active)
- EC50 [4]: > 150 µM (not active)
- EC50 [5]: > 150 µM (not active)

SMILES: O=C(Nc1ccc(F)cc1)C(=O)c1c(O)[nH]c2ccc([N+](=O)[O-])cc12
- IC50 [6]: 24 µM (active)
- IC50 [7]: > 50 µM (not active)
- AC50 [8]: 10.4 µM (active)
- IC50 [9]: 9.48 µM (active)

SMILES: NC(=O)c1ccc(NC(=O)C2CCCC2)cc1
- IC50 [10]: > 100 µM (inactive)

SMILES: CCOc1ccccc1N1Cc2cc(C)c(C)cc2C1
- IC50 [11]: > 100 µM (not active)
- IC50 [12]: > 100 µM (not active)

SMILES: COc1ccc(OC)c(C2C(C(=O)c3cc4ccccc4o3)=C(O)C(=O)N2c2cc(C)on2)c1 (configuration not stated)
- EC50 [13]: 46 nM (active)
- EC50 [14]: > 180 µM (inactive)
- EC50 [15]: > 79.4 µM (inactive)
- IC50 [16]: 5.29 µM (active)
- AC50 [17]: > 100 µM (inactive)
- EC50 [18]: 36 µM (not active)
- EC50 [19]: > 150 µM (inactive)
- EC50 [20]: 21.6 µM (active)
- EC50 [21]: > 79.4 µM (not active)
- Ki [22]: 36.6 µM (inactive)
